For this test, the system named is Vaccinia virus. Put plainly: Antiviral activity against Vaccinia virus infected in HEL cells assessed as reduction of virus-induced cytopathogenicity. In kind it is functional, organism-based. To be noted: Orthopoxvirus vaccinia. Background: Protection from cytopathic effect is a common read-out in antiviral testing.

The structures appear in SMILES notation.

By EC50 is commonly meant the concentration at which the effect is half-maximal. `CCOP(=O)(OCC)[C@@H]1C[C@H](C(=O)Nc2cc3c4c(cccc4c2)C(=O)N(CCN(C)C)C3=O)ON1C` (racemic): the EC50 is over 45 µM.

As to `CCOP(=O)(OCC)[C@@H]1C[C@@H](C(=O)Nc2cc3c4c(cccc4c2)C(=O)N(CCN(C)C)C3=O)ON1C` (racemic), the EC50 is over 45 µM.

On to `CCOP(=O)(OCC)[C@@H]1C[C@H](C(=O)Nc2cc3c4c(cccc4c2)C(=O)N(CCN2CCCC2)C3=O)ON1C` (racemic), for which the EC50 is 50 µM.

Consider `CCOP(=O)(OCC)[C@@H]1C[C@@H](C(=O)Nc2cc3c4c(cccc4c2)C(=O)N(CCN2CCCC2)C3=O)ON1C` (relative stereo), for which the EC50 is over 45 µM.

On to `Nc1nc2c(ncn2COCCO)c(=O)[nH]1` [ACYCLOVIR], for which the EC50 is over 250 µM.

As for `O=c1[nH]c(=O)n([C@H]2C[C@H](O)[C@@H](CO)O2)cc1/C=C/Br` [BRIVUDINE], the EC50 came to 17 µM.

As to `Nc1ccn(C[C@@H](CO)OCP(=O)(O)O)c(=O)n1` [CIDOFOVIR], the EC50 came to 22 µM.

Consider `Nc1nc2c(ncn2COC(CO)CO)c(=O)[nH]1` [GANCICLOVIR], for which the EC50 was over 100 µM.

Values taken from ChEMBL document CHEMBL3585293, “Design, antiviral and cytostatic properties of isoxazolidine-containing amonafide analogues” (Bioorg Med Chem, 2015).
